This note sets out measurements from patent publication US20210070748A1, “INHIBITORS OF BRUTONS TYROSINE KINASE” (Pharmacyclics LLC, priority 2015, published 2021).

Read-outs that look alike come from different tables or passages of the source. A value given as a limit tells only on which side of the number the result lay.

Format in all cases: biochemical
Assay [1] has as its target SRC (Homo sapiens, UniProt P12931). Kind of assay: Inhibition of a panel of kinases, in vitro HotSpot kinase assay: SRC. The settings on record: for IC50: 1 μM ATP; for SRC* IC50 relative to Btk IC50 value: fold relative to Btk IC50 value. As to the method: (§1) The degree of inhibition of a panel of kinases is determined using the in vitro HotSpot kinase assay (purified enzymes, ^33P-ATP, an appropriate substrate and 1 μM ATP).

Assay [2] has as its target T1, JAK3 (Homo sapiens, UniProt P52333).
T1 sequence (P52333 1-1124): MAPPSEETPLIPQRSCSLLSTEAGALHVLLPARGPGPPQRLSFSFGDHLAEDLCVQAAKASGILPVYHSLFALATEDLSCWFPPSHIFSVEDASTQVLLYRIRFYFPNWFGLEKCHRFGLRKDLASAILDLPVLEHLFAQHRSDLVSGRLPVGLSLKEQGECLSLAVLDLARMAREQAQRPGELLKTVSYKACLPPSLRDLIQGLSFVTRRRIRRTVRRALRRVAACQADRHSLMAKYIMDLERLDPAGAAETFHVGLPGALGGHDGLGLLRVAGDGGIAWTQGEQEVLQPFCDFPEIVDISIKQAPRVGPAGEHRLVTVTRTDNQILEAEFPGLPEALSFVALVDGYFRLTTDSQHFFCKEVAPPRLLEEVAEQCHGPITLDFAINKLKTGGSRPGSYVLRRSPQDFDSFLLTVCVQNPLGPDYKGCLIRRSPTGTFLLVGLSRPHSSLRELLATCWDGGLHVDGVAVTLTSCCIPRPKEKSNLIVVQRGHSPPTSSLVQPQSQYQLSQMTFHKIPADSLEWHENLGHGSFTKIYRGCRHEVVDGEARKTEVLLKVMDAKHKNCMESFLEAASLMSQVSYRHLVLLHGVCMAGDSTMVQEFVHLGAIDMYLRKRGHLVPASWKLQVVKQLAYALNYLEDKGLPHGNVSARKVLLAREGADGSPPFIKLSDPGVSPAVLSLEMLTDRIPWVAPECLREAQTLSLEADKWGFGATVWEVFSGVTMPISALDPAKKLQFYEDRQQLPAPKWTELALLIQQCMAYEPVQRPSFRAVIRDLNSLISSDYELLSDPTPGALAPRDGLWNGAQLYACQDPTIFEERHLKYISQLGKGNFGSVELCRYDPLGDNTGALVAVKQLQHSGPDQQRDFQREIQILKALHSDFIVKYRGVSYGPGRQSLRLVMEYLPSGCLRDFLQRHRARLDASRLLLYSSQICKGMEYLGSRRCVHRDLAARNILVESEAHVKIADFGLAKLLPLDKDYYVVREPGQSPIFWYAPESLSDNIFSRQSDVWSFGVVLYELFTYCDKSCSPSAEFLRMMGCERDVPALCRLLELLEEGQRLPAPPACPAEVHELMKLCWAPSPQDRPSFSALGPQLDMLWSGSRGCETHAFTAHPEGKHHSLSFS
Briefly: Inhibition of a panel of kinases, in vitro HotSpot kinase assay: JAK3. To be noted: for IC50: 1 μM ATP, read-out: IC50 JAK3; for JAK3* IC50 relative to Btk IC50 value: fold relative to Btk IC50 value.

The target of assay [3] is T2, TEC (Homo sapiens, UniProt P42680).
T2 sequence (P42680 1-631): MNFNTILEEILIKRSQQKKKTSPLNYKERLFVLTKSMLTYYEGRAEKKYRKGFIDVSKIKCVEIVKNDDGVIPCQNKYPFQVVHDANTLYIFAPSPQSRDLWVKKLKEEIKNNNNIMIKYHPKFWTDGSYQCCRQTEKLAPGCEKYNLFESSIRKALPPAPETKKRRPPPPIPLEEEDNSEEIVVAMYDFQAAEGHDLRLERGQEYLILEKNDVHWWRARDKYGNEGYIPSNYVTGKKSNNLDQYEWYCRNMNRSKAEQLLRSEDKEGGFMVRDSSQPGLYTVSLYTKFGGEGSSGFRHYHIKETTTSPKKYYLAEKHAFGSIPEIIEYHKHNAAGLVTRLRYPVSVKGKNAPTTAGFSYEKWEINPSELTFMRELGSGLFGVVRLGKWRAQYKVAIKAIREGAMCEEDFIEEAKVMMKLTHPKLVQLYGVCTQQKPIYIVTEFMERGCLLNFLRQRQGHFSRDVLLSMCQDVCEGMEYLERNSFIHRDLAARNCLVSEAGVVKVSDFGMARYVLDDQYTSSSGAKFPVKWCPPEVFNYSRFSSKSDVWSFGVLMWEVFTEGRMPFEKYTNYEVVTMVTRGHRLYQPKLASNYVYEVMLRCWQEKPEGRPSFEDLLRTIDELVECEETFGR
Kind of assay: Inhibition of a panel of kinases, in vitro HotSpot kinase assay: TEC. To be noted: for IC50: 1 μM ATP; for TEC* IC50 relative to Btk IC50 value: fold relative to Btk IC50 value. As to the method:
as §1

Sequence of SRC (P12931 whole entry): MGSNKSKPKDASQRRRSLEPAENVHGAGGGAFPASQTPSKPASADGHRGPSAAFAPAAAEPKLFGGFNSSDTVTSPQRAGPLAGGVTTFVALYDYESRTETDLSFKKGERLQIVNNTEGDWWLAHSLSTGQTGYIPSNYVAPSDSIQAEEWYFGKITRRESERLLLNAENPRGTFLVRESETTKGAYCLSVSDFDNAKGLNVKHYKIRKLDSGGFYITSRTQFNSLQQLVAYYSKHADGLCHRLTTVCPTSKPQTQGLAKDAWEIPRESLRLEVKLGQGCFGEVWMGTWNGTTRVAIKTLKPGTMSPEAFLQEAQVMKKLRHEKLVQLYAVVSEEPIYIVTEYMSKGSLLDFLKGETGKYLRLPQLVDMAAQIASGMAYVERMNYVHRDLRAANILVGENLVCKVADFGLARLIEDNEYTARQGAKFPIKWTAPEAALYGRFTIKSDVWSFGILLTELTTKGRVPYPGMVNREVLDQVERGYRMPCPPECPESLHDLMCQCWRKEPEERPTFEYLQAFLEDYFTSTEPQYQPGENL

As to `C[C@@H]1[C@H](NC(=O)N(C)C)CCCN1c1cnc(C(N)=O)c(Nc2ccc(N3CCN(C)CC3)cc2)n1` [Example A-100, 5-[(2R,3R)-3-[(dimethylcarbamoyl)amino]-2-methylpiperidin-1-yl]-3-{[4-(4-methylpiperazin-1-yl)phenyl]amino}pyrazine-2-carboxamide], the IC50 – broadly, the midpoint of a concentration-inhibition curve – in assay [1] (Table 13, A compounds) lay within 10 to 100 nM; in assay [2] (Table 13, A compounds) it was 100 to 1000 nM; in assay [3] (Table 13, A compounds), 100 to 1000 nM.
Consider `C=CC(=O)N1CCC[C@@H](Nc2nnc(C(N)=O)c(Nc3ccc(C4CCN(C(=O)CC)CC4)cc3)n2)C1` [Example C-57, (R)-3-(1-acryloylpiperidin-3-ylamino)-5-(4-(1-propionylpiperidin-4-yl)phenylamino)-1,2,4-triazine-6-carboxamide], for which the 50% inhibitory concentration (IC50) in assay [1] (Table 15, C compounds) is 10 to 100 nM; in assay [2] (Table 15, C compounds), under 10 nM; in assay [3] (Table 15, C compounds), at most 10 nM.
As for `C[C@@H]1[C@H](NC(=O)c2ccc(C3CC3)cc2)CCCN1c1cnc(C(N)=O)c(Nc2cnn(C(F)F)c2)n1` [Example A-198, 5-[(2R,3R)-3-(4-cyclopropylbenzamido)-2-methylpiperidin-1-yl]-3-{[1-(difluoromethyl)-1H-pyrazol-4-yl]amino}pyrazine-2-carboxamide], the “SRC* IC50 relative to Btk IC50 value” in assay [1] came out at 69x. Moreover, the “JAK3* IC50 relative to Btk IC50 value” in assay [2] is recorded as 1276x. The “TEC* IC50 relative to Btk IC50 value” in assay [3] was determined as 3x.
As for `C[C@@H]1[C@H](NC(=O)N(C)C)CCCN1c1cnc(C(N)=O)c(Nc2ccc(C(=O)N3CCN(C)CC3)cc2)n1` [Example A-98, 5-[(2R,3R)-3-[(dimethylcarbamoyl)amino]-2-methylpiperidin-1-yl]-3-{[4-(4-methylpiperazine-1-carbonyl)phenyl]amino}pyrazine-2-carboxamide], the concentration for half-maximal inhibition (IC50) in assay [1] (Table 13, A compounds) lay within 100 to 1000 nM; in assay [2] (Table 13, A compounds), 1000 to 10000 nM; in assay [3] (Table 13, A compounds) it was 100 to 1000 nM.
With `C[C@@H]1[C@H](NC(=O)c2ccc(C(C)(C)C)cc2)CCCN1c1cnc(C(N)=O)c(Nc2cnn(C)c2)n1` [Example A-203, 5-((2R,3R)-3-(4-tert-butylbenzamido)-2-methylpiperidin-1-yl)-3-(1-methyl-1H-pyrazol-4-ylamino)pyrazine-2-carboxamide], the “SRC* IC50 relative to Btk IC50 value” in assay [1] came to 98x. Further, the “JAK3* IC50 relative to Btk IC50 value” in assay [2] amounted to 7353x. Further, the “TEC* IC50 relative to Btk IC50 value” in assay [3] worked out at 8x.
